# Source: ChEMBL document CHEMBL3232730, “Design, synthesis and bioevaluation of N-trisubstituted pyrimidine derivatives as potent aurora A kinase inhibitors” (Eur J Med Chem, 2014)
# Legend:
# Aurora kinase A = target: T1, Aurora kinase A (Homo sapiens, UniProt O14965); assay: Inhibition of Aurora A (unknown origin) using FAM-labeled peptide as substrate preincubated for 10 mins followed by substrate addition measured after 60 mins
# T1 sequence (O14965 whole entry): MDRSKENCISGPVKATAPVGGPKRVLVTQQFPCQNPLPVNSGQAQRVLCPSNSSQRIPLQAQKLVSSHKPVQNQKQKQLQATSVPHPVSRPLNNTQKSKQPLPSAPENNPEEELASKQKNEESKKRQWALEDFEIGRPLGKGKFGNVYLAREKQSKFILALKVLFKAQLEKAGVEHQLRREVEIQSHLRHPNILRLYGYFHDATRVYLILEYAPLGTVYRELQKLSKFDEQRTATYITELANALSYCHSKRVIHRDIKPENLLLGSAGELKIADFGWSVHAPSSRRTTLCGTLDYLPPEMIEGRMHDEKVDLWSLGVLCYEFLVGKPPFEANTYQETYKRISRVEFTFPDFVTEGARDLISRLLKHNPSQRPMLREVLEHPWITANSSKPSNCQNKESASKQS
# [1] = Cell cycle arrest in human CNE2 cells assessed as accumulation at polyploid period at 1 uM after 24 hrs by propidium iodide staining-based flow cytometric analysis (reference value: […]); type: functional; settings: CNE-2
# HeLa = assay: Antiproliferative activity against human HeLa cells assessed as cell viability after 72 hrs by CCK8 assay; type: functional, cell-based
# PC-3 = assay: Antiproliferative activity against human PC3 cells assessed as cell viability after 72 hrs by CCK8 assay; type: functional, cell-based
# [2] = Cell cycle arrest in human CNE2 cells assessed as accumulation at G1 phase at 1 uM after 24 hrs by propidium iodide staining-based flow cytometric analysis (reference value: 52.5%); type: functional; settings: CNE-2
# NCI-N87 = assay: Antiproliferative activity against human NCI-N87 cells assessed as cell viability after 72 hrs by CCK8 assay; type: functional, cell-based
# HL-60 = assay: Antiproliferative activity against human HL60 cells assessed as cell viability after 72 hrs by CCK8 assay; type: functional, cell-based
# DU-145 = assay: Antiproliferative activity against human DU145 cells assessed as cell viability after 72 hrs by CCK8 assay; type: functional, cell-based
# K562 = assay: Antiproliferative activity against human K562 cells assessed as cell viability after 72 hrs by CCK8 assay; type: functional, cell-based
# [3] = Cell cycle arrest in human CNE2 cells assessed as accumulation at G2/M phase at 1 uM after 24 hrs by propidium iodide staining-based flow cytometric analysis (reference value: 38.2%); type: functional; settings: CNE-2
# HCT-116 = assay: Antiproliferative activity against human HCT116 cells assessed as cell viability after 72 hrs by CCK8 assay; type: functional, cell-based
# [4] = Antiproliferative activity against human MOLT4 cells assessed as cell viability after 72 hrs by CCK8 assay; type: functional, cell-based, MOLT-4
# [5] = Cell cycle arrest in human CNE2 cells assessed as accumulation at S phase at 1 uM after 24 hrs by propidium iodide staining-based flow cytometric analysis (reference value: 14.7%); type: functional; settings: CNE-2
# [6] = Antiproliferative activity against human PANC1 cells assessed as cell viability after 72 hrs by CCK8 assay; type: functional, cell-based; settings: PANC-1, 72 h
# MDA-MB-231 = assay: Antiproliferative activity against human MDA-MB-231 cells assessed as cell viability after 72 hrs by CCK8 assay; type: functional, cell-based
# A-431 = assay: Antiproliferative activity against human A431 cells assessed as cell viability after 72 hrs by CCK8 assay; type: functional, cell-based
# MCF7 = assay: Antiproliferative activity against human MCF7 cells assessed as cell viability after 72 hrs by CCK8 assay; type: functional, cell-based
# A549 = assay: Antiproliferative activity against human A549 cells assessed as cell viability after 72 hrs by CCK8 assay; type: functional, cell-based; settings: A549, 72 h
# U-937 = assay: Antiproliferative activity against human U937 cells assessed as cell viability after 72 hrs by CCK8 assay; type: functional, cell-based
# [7] = Antiproliferative activity against human SKBR3 cells assessed as cell viability after 72 hrs by CCK8 assay; type: functional, cell-based, SK-BR-3
# [8] = Homo sapiens, HeLa, 72 h, read-out: IC50
# [9] = Homo sapiens, PC-3, 72 h, read-out: IC50
# [10] = Homo sapiens, NCI-N87, 72 h, read-out: IC50
# [11] = Homo sapiens, HL-60, 72 h, read-out: IC50
# [12] = Homo sapiens, DU-145, 72 h, read-out: IC50
# [13] = Homo sapiens, K562, 72 h, read-out: IC50
# [14] = Homo sapiens, HCT-116, 72 h, read-out: IC50
# [15] = Homo sapiens, MOLT-4, 72 h, read-out: IC50
# [16] = Homo sapiens, MDA-MB-231, 72 h, read-out: IC50
# [17] = Homo sapiens, A-431, 72 h, read-out: IC50
# [18] = Homo sapiens, MCF7, 72 h, read-out: IC50
# [19] = Homo sapiens, U-937, 72 h, read-out: IC50
# [20] = Homo sapiens, SK-BR-3, 72 h, read-out: IC50
IC50 (Aurora kinase A),IC50 (HeLa; [8]),IC50 (PC-3; [9]),IC50 (HL-60; [11]),IC50 (DU-145; [12]),IC50 (K562; [13]),IC50 (HCT-116; [14]),IC50 (MDA-MB-231; [16]),IC50 (A-431; [17]),IC50 (MCF7; [18]),IC50 (A549),IC50 (U-937; [19]),SMILES,IC50 (NCI-N87; [10]),"IC50 [4, 15]",IC50 [6],"IC50 [7, 20]",also measured
573 nM,,,,,,,,,,,,COC(=O)c1ccc(Nc2nc(Nc3cc(C)[nH]n3)cc(N3CCN(S(=O)(=O)c4ccc(C)cc4)CC3)n2)cc1,,,,,
25 nM,1890 nM,1090 nM,750 nM,611 nM,537 nM,1040 nM,571 nM,832 nM,938 nM,1590 nM,447 nM,COC(=O)c1ccc(Nc2nc(Nc3cc(C)[nH]n3)cc(N3CCOCC3)n2)cc1,3230 nM,302 nM,1590 nM,3180 nM,Activity [1]: 4%; Activity [2]: 52.9%; Activity [3]: 35.7%; Activity [5]: 7.1%
135 nM,,,,,,,,,,,,COC(=O)c1ccc(Nc2nc(Nc3cc(C)[nH]n3)cc(N3CCNCC3)n2)cc1,,,,,
12 nM,331 nM,1090 nM,69.8 nM,1200 nM,137 nM,1630 nM,84.4 nM,150 nM,424 nM,723 nM,43.3 nM,Cc1cc(Nc2cc(N3CCN(C)CC3)nc(Nc3ccc([N+](=O)[O-])cc3)n2)n[nH]1,3880 nM,18.1 nM,442 nM,437 nM,
8 nM,331 nM,977 nM,21.8 nM,1270 nM,58.1 nM,650 nM,75.7 nM,140 nM,372 nM,785 nM,9.03 nM,Cc1cc(Nc2cc(N3CCN(C)CC3)nc(Nc3ccc(C#N)cc3)n2)n[nH]1,5780 nM,13.6 nM,435 nM,883 nM,
101 nM,,,,,,,,,,,,CNC(=O)c1ccc(Nc2nc(Nc3cc(C)[nH]n3)cc(N3CCN(C)CC3)n2)cc1,,,,,
127 nM,,,,,,,,,,,,COC(=O)c1ccc(CNc2nc(Nc3cc(C)[nH]n3)cc(N3CCN(C)CC3)n2)cc1,,,,,Activity [1]: 3%; Activity [2]: 55.4%; Activity [3]: 35.3%; Activity [5]: 6.2%
5 nM,3060 nM,4380 nM,213 nM,926 nM,1430 nM,12200 nM,1210 nM,2760 nM,2680 nM,16700 nM,100 nM,Cc1cc(Nc2cc(N3CCN(C)CC3)nc(Nc3ccc(S(N)(=O)=O)cc3)n2)n[nH]1,24000 nM,648 nM,8760 nM,15900 nM,
13 nM,619 nM,1480 nM,83.4 nM,2240 nM,192 nM,1370 nM,138 nM,162 nM,840 nM,631 nM,55.4 nM,Cc1cc(Nc2cc(N3CCN(C)CC3)nc(Nc3ccc(Cl)cc3)n2)n[nH]1,7470 nM,53.1 nM,455 nM,1610 nM,
7.7 nM,322 nM,1380 nM,129 nM,900 nM,137 nM,1590 nM,124 nM,83.3 nM,813 nM,1590 nM,55 nM,COC(=O)c1ccc(Nc2nc(Nc3cc(C)[nH]n3)cc(N3CCN(C)CC3)n2)cc1Cl,3620 nM,42.9 nM,508 nM,2160 nM,
118 nM,,,,,,,,,,,,CC(=O)Nc1ccc(Nc2nc(Nc3cc(C)[nH]n3)cc(N3CCN(C)CC3)n2)cc1,,,,,
113 nM,,,,,,,,,,,,COC(=O)c1ccc(Nc2nc(Nc3cc(C)[nH]n3)cc(N3C[C@@H](C)O[C@@H](C)C3)n2)cc1,,,,,
34 nM,1700 nM,2060 nM,604 nM,791 nM,556 nM,1240 nM,716 nM,1610 nM,1990 nM,1730 nM,233 nM,COC(=O)c1ccc(Nc2nc(Nc3cc(C)[nH]n3)cc(N3CCN(S(C)(=O)=O)CC3)n2)cc1,10900 nM,215 nM,1220 nM,5850 nM,
32 nM,,,,,,,,,,19700 nM,,Cc1cc(Nc2cc(N3CCN(C)CC3)nc(Nc3ccc(C(=O)O)cc3)n2)n[nH]1,,,39300 nM,,IC50 (HeLa; hela): Not Active; IC50 (PC-3; pc-3): Not Active; IC50 (NCI-N87; nci-n87): Not Active; IC50 (HL-60; hl-60): Not Active; IC50 (DU-145; du-145): Not Active; IC50 (K562; k562): Not Active; IC50 (HCT-116; hct-116): Not Active; IC50 ([4]; molt-4): Not Active; IC50 (MDA-MB-231; mda-mb-231): Not Active; IC50 (A-431; a-431): Not Active; IC50 (MCF7; mcf7): Not Active; IC50 (U-937; u-937): Not Active; IC50 ([7]; sk-br-3): Not Active

# The next lines start with the compound.
SMILES,IC50 (Aurora kinase A),IC50 (HeLa; [8]),IC50 (PC-3; [9]),IC50 (HL-60; [11]),IC50 (DU-145; [12]),IC50 (K562; [13]),IC50 (HCT-116; [14]),IC50 (MDA-MB-231; [16]),IC50 (A-431; [17]),IC50 (MCF7; [18]),IC50 (A549),IC50 (U-937; [19]),IC50 (NCI-N87; [10]),"IC50 [4, 15]",IC50 [6],"IC50 [7, 20]",also measured
Cc1cc(Nc2cc(N3CCN(C)CC3)nc(Sc3ccc(NC(=O)C4CC4)cc3)n2)n[nH]1 [TOZASERTIB],,2930 nM,5810 nM,38.2 nM,400 nM,79.1 nM,4320 nM,127 nM,240 nM,1300 nM,3050 nM,36 nM,11600 nM,21.2 nM,4130 nM,9990 nM,
Cc1cc(Nc2cc(N3CCN(C)CC3)nc(Nc3cccc([N+](=O)[O-])c3)n2)n[nH]1,16 nM,1110 nM,962 nM,90.9 nM,1340 nM,138 nM,1820 nM,114 nM,166 nM,642 nM,926 nM,25.2 nM,4320 nM,26 nM,457 nM,2180 nM,
COC(=O)c1ccc(Nc2nc(NCCN3CCOCC3)cc(Nc3cc(C)[nH]n3)n2)cc1,72 nM,,,,,,,,,,,,,,,,
COC(=O)c1ccc(Nc2nc(NCCN3CCCCC3)cc(Nc3cc(C)[nH]n3)n2)cc1,228 nM,,,,,,,,,,,,,,,,
Cc1cc(Nc2cc(N3CCN(C)CC3)nc(Nc3ccc(N4CC(=O)N(C5CC5)CC4=O)cc3)n2)n[nH]1,549 nM,,,,,,,,,,,,,,,,
Cc1cc(Nc2cc(N3CCOCC3)nc(Nc3ccc([N+](=O)[O-])cc3)n2)n[nH]1,11 nM,607 nM,967 nM,1600 nM,631 nM,355 nM,2600 nM,204 nM,331 nM,1070 nM,1040 nM,210 nM,17500 nM,60.7 nM,580 nM,960 nM,
COc1ccccc1Nc1nc(Nc2cc(C)[nH]n2)cc(N2CCN(C)CC2)n1,200 nM,,,,,,,,,,,,,,,,Activity [1]: 3.7%; Activity [2]: 38.7%; Activity [3]: 49%; Activity [5]: 8.2%
Cc1cc(Nc2cc(N3CCN(C)CC3)nc(Nc3ccccc3Cl)n2)n[nH]1,147 nM,,,,,,,,,,,,,,,,
COC(=O)c1ccc(CNc2nc(Nc3cc(C)[nH]n3)cc(N3CCOCC3)n2)cc1,97 nM,,,,,,,,,,,,,,,,
Cc1cc(Nc2cc(N3CCN(C)CC3)nc(Nc3ccc(N4CCOCC4)cc3)n2)n[nH]1,112 nM,,,,,,,,,,,,,,,,
